Each structure is given as a SMILES string. A value given as a limit tells only on which side of the number the result lay.

In this test the target is human integrin αvβ6 (Homo sapiens (Human), UniProt P06756+P18564). Put plainly: Proximity-based integrin receptor binding assay (ALPHASCREEN) for inhibitor potency. As to conditions: inhibition of binding of TGF-b1 LAP to human integrin αvβ6; values given in ranges. In a few lines: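 AlphaScreen: integrin, compound, TGF-b1 LAP, biotinylated anti-LAP antibody and acceptor beads incubated 2 hours, then streptavidin donor beads 30 minutes, at room temperature in 50 mM Tris-HCl pH 7.5, 0.1% BSA, 1 mM CaCl2 and MgCl2. Excitation 680 nm, emission 520-620 nm; IC50 by four-parameter logistic fit.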
Chain of human integrin αvβ6 (P06756 31-992): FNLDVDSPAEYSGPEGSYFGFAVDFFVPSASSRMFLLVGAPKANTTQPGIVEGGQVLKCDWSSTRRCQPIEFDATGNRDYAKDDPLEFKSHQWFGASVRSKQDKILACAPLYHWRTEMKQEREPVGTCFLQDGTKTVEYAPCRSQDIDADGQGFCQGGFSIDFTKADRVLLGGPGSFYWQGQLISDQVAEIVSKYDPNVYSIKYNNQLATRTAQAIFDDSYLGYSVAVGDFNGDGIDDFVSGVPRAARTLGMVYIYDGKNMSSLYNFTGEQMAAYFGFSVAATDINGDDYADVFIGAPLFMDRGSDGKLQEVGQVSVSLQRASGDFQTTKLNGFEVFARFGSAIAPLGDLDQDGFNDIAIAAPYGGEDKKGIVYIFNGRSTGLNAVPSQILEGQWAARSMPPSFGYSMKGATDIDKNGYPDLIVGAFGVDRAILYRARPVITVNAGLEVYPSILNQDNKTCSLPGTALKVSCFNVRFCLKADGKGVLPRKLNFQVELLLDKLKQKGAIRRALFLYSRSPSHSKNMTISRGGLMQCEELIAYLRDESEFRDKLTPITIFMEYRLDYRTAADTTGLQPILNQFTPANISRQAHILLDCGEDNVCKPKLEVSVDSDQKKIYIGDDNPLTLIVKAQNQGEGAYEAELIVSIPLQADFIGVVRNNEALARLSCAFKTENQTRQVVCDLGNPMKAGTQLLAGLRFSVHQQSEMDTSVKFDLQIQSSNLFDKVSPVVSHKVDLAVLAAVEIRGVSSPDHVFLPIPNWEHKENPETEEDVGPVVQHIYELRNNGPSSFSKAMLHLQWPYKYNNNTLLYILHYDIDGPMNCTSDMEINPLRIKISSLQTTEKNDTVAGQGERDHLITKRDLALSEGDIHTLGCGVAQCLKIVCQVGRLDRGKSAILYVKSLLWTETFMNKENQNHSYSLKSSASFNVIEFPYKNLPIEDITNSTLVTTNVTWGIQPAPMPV
Chain of human integrin αvβ6 (P18564 22-707): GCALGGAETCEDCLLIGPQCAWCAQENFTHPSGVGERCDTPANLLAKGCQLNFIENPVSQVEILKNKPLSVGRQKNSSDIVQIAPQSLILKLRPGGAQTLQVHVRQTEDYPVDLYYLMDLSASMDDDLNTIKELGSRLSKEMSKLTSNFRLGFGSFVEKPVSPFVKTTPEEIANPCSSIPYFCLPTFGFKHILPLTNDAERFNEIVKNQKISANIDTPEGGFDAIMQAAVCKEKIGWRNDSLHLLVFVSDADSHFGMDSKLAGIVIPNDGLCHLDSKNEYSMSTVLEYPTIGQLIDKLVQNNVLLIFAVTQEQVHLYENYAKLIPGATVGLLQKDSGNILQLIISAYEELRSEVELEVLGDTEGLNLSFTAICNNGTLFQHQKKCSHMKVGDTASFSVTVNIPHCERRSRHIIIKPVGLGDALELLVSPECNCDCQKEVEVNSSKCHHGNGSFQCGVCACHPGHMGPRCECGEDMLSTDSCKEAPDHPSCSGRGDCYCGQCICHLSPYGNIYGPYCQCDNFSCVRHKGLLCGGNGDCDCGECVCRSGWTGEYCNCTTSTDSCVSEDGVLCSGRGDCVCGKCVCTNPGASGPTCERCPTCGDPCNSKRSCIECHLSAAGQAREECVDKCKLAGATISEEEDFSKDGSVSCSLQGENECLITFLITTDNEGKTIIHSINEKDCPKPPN
Background: Bead proximity is the source of the signal in Alpha formats.
In the case of `O=C(NC(CCO[C@H]1C[C@H](CCc2ccc3c(n2)NCCC3)C1)C(=O)O)C1Cc2ccccc2C1` (stereo partly drawn) [Compound 92, N-(2,3-dihydro-1H-indene-2-carbonyl)-O-(trans-3-(2-(5,6,7,8-tetrahydro-1,8-naphthyridin-2-yl)ethyl)cyclobutyl)homoserine], the IC50 – broadly, the concentration needed to halve the response being measured – was in the range of 250 to 1000 nM. For the molecule `O=C(NC(CCOCCCCc1ccc2c(n1)NCCC2)C(=O)O)c1c(Cl)cncc1Cl` (centres unmarked) [Compound 189, N-(3,5-dichloroisonicotinoyl)-O-(4-(5,6,7,8-tetrahydro-1,8-naphthyridin-2-yl)butyl)homoserine], the half-maximal inhibitory concentration (IC50) fell in the range of 50 to 250 nM. On to `O=C(N[C@@H](CCO[C@H]1C[C@H](CCc2ccc3c(n2)NCCC3)C1)C(=O)O)c1ccc2ncccc2c1` [Compound 54, N-(quinoline-6-carbonyl)-O-(trans-3-(2-(5,6,7,8-tetrahydro-1,8-naphthyridin-2-yl)ethyl)cyclobutyl)homoserine], for which the IC50 is 50 to 250 nM. Then `O=C(NC(CCO[C@H]1C[C@H](CCc2ccc3c(n2)NCCC3)C1)C(=O)O)C1Cc2ccccc2C1` (stereo partly drawn) [Compound 107, N-(2,3-dihydro-1H-indene-2-carbonyl)-O-(trans-3-(2-(5,6,7,8-tetrahydro-1,8-naphthyridin-2-yl)ethyl)cyclobutyl)homoserine], with less than 50 nM; and `O=C(N[C@@H](CCO[C@H]1C[C@H](CCc2ccc3c(n2)NCCC3)C1)C(=O)O)c1ccccc1F` [Compound 22, N-(2-fluorobenzoyl)-O-(trans-3-(2-(5,6,7,8-tetrahydro-1,8-naphthyridin-2-yl)ethyl)cyclobutyl)homoserine], with less than 50 nM.

Turning to `CC(C)(C)OC(=O)N1CC(OC(=O)N[C@@H](CCO[C@H]2C[C@H](CCc3ccc4c(n3)NCCC4)C2)C(=O)O)(c2cccc(Cl)c2)C1` [Compound 157, N-(((1-(tert-butoxycarbonyl)-3-(3-chlorophenyl)azetidin-3-yl)oxy)carbonyl)-O-(trans-3-(2-(5,6,7,8-tetrahydro-1,8-naphthyridin-2-yl)ethyl)cyclobutyl)homoserine], the IC50 was less than 50 nM. Then `O=C(N[C@@H](CCO[C@H]1C[C@H](CCc2ccc3c(n2)NCCC3)C1)C(=O)O)c1c(F)cccc1F` [Compound 32, N-(2,6-difluorobenzoyl)-O-(trans-3-(2-(5,6,7,8-tetrahydro-1,8-naphthyridin-2-yl)ethyl)cyclobutyl)homoserine], with less than 50 nM; and `CC(C)(C)c1ccc(C2(C(=O)N[C@@H](CCO[C@H]3C[C@H](CCc4ccc5c(n4)NCCC5)C3)C(=O)O)CCC2)cc1` [Compound 190, N-(1-(4-(tert-butyl)phenyl)cyclobutane-1-carbonyl)-O-(trans-3-(2-(5,6,7,8-tetrahydro-1,8-naphthyridin-2-yl)ethyl)cyclobutyl)homoserine], with less than 50 nM; and `O=C(O)C(CCO[C@H]1C[C@H](CCc2ccc3c(n2)NCCC3)C1)NC(=O)[C@@H](CO)c1ccccc1` (stereo partly drawn) [Compound 43, N—((R)-3-hydroxy-2-phenylpropanoyl)-O-(trans-3-(2-(5,6,7,8-tetrahydro-1,8-naphthyridin-2-yl)ethyl)cyclobutyl)homoserine], with 250 to 1000 nM.

Consider `O=C(O)C(CCO[C@H]1C[C@H](CCc2ccc3c(n2)NCCC3)C1)NC(=O)[C@@H](O)c1ccccc1` (stereo partly drawn) [Compound 79, N—((S)-2-hydroxy-2-phenylacetyl)-O-(trans-3-(2-(5,6,7,8-tetrahydro-1,8-naphthyridin-2-yl)ethyl)cyclobutyl)homoserine], for which the concentration for half-maximal inhibition (IC50) lay in the range of 50 to 250 nM.

For the molecule `O=C(N[C@@H](CCO[C@H]1C[C@@H](CCc2ccc3c(n2)NCCC3)C1)C(=O)O)c1ccncc1` [Compound 68, N-isonicotinoyl-O-(cis-3-(2-(5,6,7,8-tetrahydro-1,8-naphthyridin-2-yl)ethyl)cyclobutyl)homoserine], the 50% inhibitory concentration (IC50) lay in the range of 250 to 1000 nM. On to `O=C(N[C@@H](CCO[C@H]1C[C@@H](CCc2ccc3c(n2)NCCC3)C1)C(=O)O)c1ccc(F)c(F)c1` [Compound 66, N-(3,4-difluorobenzoyl)-O-(cis-3-(2-(5,6,7,8-tetrahydro-1,8-naphthyridin-2-yl)ethyl)cyclobutyl)homoserine], for which the IC50 was 50 to 250 nM.

With `O=C(NC(CCOCCCCc1ccc2c(n1)NCCC2)C(=O)O)C1CCC(F)(F)CC1` (centres unmarked) [Compound 7, N-(4,4-difluorocyclohexane-1-carbonyl)-O-(4-(5,6,7,8-tetrahydro-1,8-naphthyridin-2-yl)butyl)homoserine], the IC50 fell in the range of 50 to 250 nM. With `CC(C)(C)OC(=O)NC(CCO[C@H]1C[C@H](CCc2ccc3c(n2)NCCC3)C1)C(=O)O` (stereo partly drawn) [Compound 101, N-(tert-butoxycarbonyl)-O-(trans-3-(2-(5,6,7,8-tetrahydro-1,8-naphthyridin-2-yl)ethyl)cyclobutyl)homoserine], the IC50 was less than 50 nM.

With `CC(=O)N1CC[C@@H](OC(=O)N[C@@H](CCO[C@H]2C[C@H](CCc3ccc4c(n3)NCCC4)C2)C(=O)O)C1` [Compound 139, N—((((R)-1-acetylpyrrolidin-3-yl)oxy)carbonyl)-O-(trans-3-(2-(5,6,7,8-tetrahydro-1,8-naphthyridin-2-yl)ethyl)cyclobutyl)homoserine], the 50% inhibitory concentration (IC50) is greater than 1000 nM. Then `O=C(N[C@@H](CCO[C@H]1C[C@H](CCc2ccc3c(n2)NCCC3)C1)C(=O)O)c1ccc(Cl)c(Cl)c1` [Compound 34, N-(3,4-dichlorobenzoyl)-O-(trans-3-(2-(5,6,7,8-tetrahydro-1,8-naphthyridin-2-yl)ethyl)cyclobutyl)homoserine], with 50 to 250 nM. Consider `O=C(N[C@@H](CCO[C@H]1C[C@H](CCc2ccc3c(n2)NCCC3)C1)C(=O)O)c1ccccc1C1CC1` [Compound 52, N-(2-cyclopropylbenzoyl)-O-(trans-3-(2-(5,6,7,8-tetrahydro-1,8-naphthyridin-2-yl)ethyl)cyclobutyl)homoserine], for which the IC50 is less than 50 nM. As to `CC(=O)N1CC[C@H](OC(=O)N[C@@H](CCO[C@H]2C[C@H](CCc3ccc4c(n3)NCCC4)C2)C(=O)O)C1` [Compound 137, N—((((S)-1-acetylpyrrolidin-3-yl)oxy)carbonyl)-O-(trans-3-(2-(5,6,7,8-tetrahydro-1,8-naphthyridin-2-yl)ethyl)cyclobutyl)homoserine], the 50% inhibitory concentration (IC50) fell in the range of 250 to 1000 nM.

For `O=C(N[C@@H](CCO[C@H]1C[C@H](CCc2ccc3c(n2)NCCC3)C1)C(=O)O)c1ccc(F)cc1` [Compound 16, N-(4-fluorobenzoyl)-O-(trans-3-(2-(5,6,7,8-tetrahydro-1,8-naphthyridin-2-yl)ethyl)cyclobutyl)homoserine], the IC50 is less than 50 nM. Consider `O=C(NC(CCO[C@H]1C[C@H](CCc2ccc3c(n2)NCCC3)C1)C(=O)O)c1cccc(-c2cncs2)c1` (stereo partly drawn) [Compound 49, O-(trans-3-(2-(5,6,7,8-tetrahydro-1,8-naphthyridin-2-yl)ethyl)cyclobutyl)-N-(3-(thiazol-5-yl)benzoyl)homoserine], for which the half-inhibitory concentration (IC50) was 50 to 250 nM. As for `O=C(O)C(CCOCCCCc1ccc2c(n1)NCCC2)NC(=O)[C@@H](O)c1ccccc1` (stereo partly drawn) [Compound 75, N—((S)-2-hydroxy-2-phenylacetyl)-O-(4-(5,6,7,8-tetrahydro-1,8-naphthyridin-2-yl)butyl)homoserine], the IC50 is 250 to 1000 nM. Then `O=C(N[C@@H](CCO[C@H]1C[C@H](CCc2ccc3c(n2)NCCC3)C1)C(=O)O)C1CCc2ccccc21` (single isomer, unassigned) [95*,†], with greater than 1000 nM; and `O=C(O)C(CCO[C@H]1C[C@@H](CCc2ccc3c(n2)NCCC3)C1)NC(=O)[C@@H](CO)c1ccccc1` (stereo partly drawn) [Compound 70, N—((R)-3-hydroxy-2-phenylpropanoyl)-O-(cis-3-(2-(5,6,7,8-tetrahydro-1,8-naphthyridin-2-yl)ethyl)cyclobutyl)homoserine], with 50 to 250 nM. Regarding `CC(C)OC(=O)N[C@@H](CCO[C@H]1C[C@H](CCc2ccc3c(n2)NCCC3)C1)C(=O)O` [Compound 116, N-(isopropoxycarbonyl)-O-(trans-3-(2-(5,6,7,8-tetrahydro-1,8-naphthyridin-2-yl)ethyl)cyclobutyl)homoserine], the 50% inhibitory concentration (IC50) is less than 50 nM. As for `O=C(N[C@@H](CCO[C@H]1C[C@H](CCc2ccc3c(n2)NCCC3)C1)C(=O)O)c1cccc2cccnc12` [Compound 55, N-(quinoline-8-carbonyl)-O-(trans-3-(2-(5,6,7,8-tetrahydro-1,8-naphthyridin-2-yl)ethyl)cyclobutyl)homoserine], the IC50 was in the range of 250 to 1000 nM. With `CC(C)(C)c1nccc(N[C@@H](CCO[C@H]2C[C@H](CCc3ccc4c(n3)NCCC4)C2)C(=O)O)n1` [Example 225, N-(2-(tert-butyl)pyrimidin-4-yl)-O-(trans-3-(2-(5,6,7,8-tetrahydro-1,8-naphthyridin-2-yl)ethyl)cyclobutyl)homoserine], the IC50 was in the range of 250 to 1000 nM. As to `O=C(N[C@@H](CCO[C@H]1C[C@H](CCc2ccc3c(n2)NCCC3)C1)C(=O)O)c1cccc(F)c1` [Compound 19, N-(3-fluorobenzoyl)-O-(trans-3-(2-(5,6,7,8-tetrahydro-1,8-naphthyridin-2-yl)ethyl)cyclobutyl)homoserine], the IC50 was less than 50 nM. Next, `CC(C)(C)C(=O)NC(CCO[C@H]1C[C@H](CCc2ccc3c(n2)NCCC3)C1)C(=O)O` (stereo partly drawn) [Compound 94, N-pivaloyl-O-(trans-3-(2-(5,6,7,8-tetrahydro-1,8-naphthyridin-2-yl)ethyl)cyclobutyl)homoserine]: 50 to 250 nM; `CC(C)(C)OC(=O)N1CC(OC(=O)N[C@@H](CCO[C@H]2C[C@H](CCc3ccc4c(n3)NCCC4)C2)C(=O)O)C1` [Compound 147, N-(((1-(tert-butoxycarbonyl)azetidin-3-yl)oxy)carbonyl)-O-(trans-3-(2-(5,6,7,8-tetrahydro-1,8-naphthyridin-2-yl)ethyl)cyclobutyl)homoserine]: less than 50 nM.

Values taken from patent US11180494B2, “Substituted amino acids as integrin inhibitors” (Pliant Therapeutics, Inc., priority 2018, dated 2021).
